Source: ChEMBL document CHEMBL3525960, “Role of catechol-O-methyltransferase in the disposition of luteolin in rats” (Drug Metab Dispos, 2011)

Assays:
[1] = Drug excretion in Sprague-Dawley rat urine treated with luteolin at 6.5 mg/kg, iv after 24 hrs; assay type: ADME, organism-based; parameters: dose 6.5 mg/kg, route intravenous; settings: read-out: Drug excretion
Kidney [2] = experiment: Drug metabolism in Sprague-Dawley rat kidney homogenate treated with luteolin at 20 uM after 20 to 60 mins; assay type: ADME, tissue-based; settings: tissue homogenate
[3] = AUC (0 to infinity) in Sprague-Dawley rat treated with luteolin at 6.5 mg/kg, iv; assay type: ADME, organism-based; parameters: time infinity, dose 6.5 mg/kg, route intravenous; settings: plasma
[4] = Drug excretion in Sprague-Dawley rat urine treated with luteolin at 6.5 mg/kg, iv after 24 hrs co-treated with COMT inhibitor entacapone; assay type: ADME, organism-based; parameters: dose 6.5 mg/kg, route intravenous; settings: read-out: Drug excretion
Small intestine [5] = experiment: Drug metabolism in Sprague-Dawley rat small intestine homogenate treated with luteolin at 20 uM after 20 to 60 mins in presence of COMT inhibitor entacapone; assay type: ADME, tissue-based; settings: tissue homogenate
Lung [6] = experiment: Drug metabolism in Sprague-Dawley rat lung homogenate treated with luteolin at 20 uM after 20 to 60 mins in presence of COMT inhibitor entacapone; assay type: ADME, tissue-based; settings: tissue homogenate
Liver microsome = experiment: Stability in Sprague-Dawley rat liver microsomes at 10 uM after 10 to 30 mins by HPLC analysis; assay type: ADME
[7] = Half life in Sprague-Dawley rat treated with luteolin at 6.5 mg/kg, iv; assay type: ADME, organism-based; parameters: dose 6.5 mg/kg, route intravenous; settings: in vivo
[8] = Mean residence time (0 to infinity) in Sprague-Dawley rat treated with luteolin at 6.5 mg/kg, iv; assay type: ADME, organism-based; parameters: dose 6.5 mg/kg, route intravenous; settings: in vivo
Liver [9] = experiment: Drug metabolism in Sprague-Dawley rat liver homogenate treated with luteolin at 20 uM after 20 to 60 mins; assay type: ADME, tissue-based; settings: tissue homogenate
Lung [10] = experiment: Drug metabolism in Sprague-Dawley rat lung homogenate treated with luteolin at 20 uM after 20 to 60 mins; assay type: ADME, tissue-based; settings: tissue homogenate
[11] = AUC (0 to t) in Sprague-Dawley rat treated with luteolin at 6.5 mg/kg, iv; assay type: ADME, organism-based; parameters: dose 6.5 mg/kg, route intravenous; settings: plasma
[12] = Volume of distribution in Sprague-Dawley rat treated with luteolin at 6.5 mg/kg, iv; assay type: ADME, organism-based; parameters: dose 6.5 mg/kg, route intravenous; settings: in vivo
[13] = Drug recovery in Sprague-Dawley rat urine assessed as retention time treated with luteolin at 6.5 mg/kg, iv by reverse-phase HPLC method; assay type: ADME, organism-based; parameters: dose 6.5 mg/kg, route intravenous; settings: in vivo
Rattus norvegicus = experiment: Clearance in Sprague-Dawley rat treated with luteolin at 6.5 mg/kg, iv; assay type: ADME, organism-based; parameters: dose 6.5 mg/kg, route intravenous; settings: in vivo
Small intestine [14] = experiment: Drug metabolism in Sprague-Dawley rat small intestine homogenate treated with luteolin at 20 uM after 20 to 60 mins; assay type: ADME, tissue-based; settings: tissue homogenate
[15] = Cmax in Sprague-Dawley rat treated with luteolin at 6.5 mg/kg, iv; assay type: ADME, organism-based; parameters: dose 6.5 mg/kg, route intravenous; settings: in vivo
[16] = Mean residence time (0 to t) in Sprague-Dawley rat treated with luteolin at 6.5 mg/kg, iv; assay type: ADME, organism-based; parameters: dose 6.5 mg/kg, route intravenous; settings: in vivo
Liver [17] = experiment: Drug metabolism in Sprague-Dawley rat liver homogenate treated with luteolin at 20 uM after 20 to 60 mins in presence of COMT inhibitor entacapone; assay type: ADME, tissue-based; settings: tissue homogenate
Kidney [18] = experiment: Drug metabolism in Sprague-Dawley rat kidney homogenate treated with luteolin at 20 uM after 20 to 60 mins in presence of COMT inhibitor entacapone; assay type: ADME, tissue-based; settings: tissue homogenate
[19] = Drug metabolism in Sprague-Dawley rat erythrocytes homogenate treated with luteolin at 20 uM after 20 to 60 mins; assay type: ADME, cell-based; settings: erythrocyte
[20] = Drug metabolism in Sprague-Dawley rat erythrocytes homogenate treated with luteolin at 20 uM after 20 to 60 mins in presence of COMT inhibitor entacapone; assay type: ADME, cell-based; settings: erythrocyte

SMILES: COc1cc(-c2cc(=O)c3c(O)cc(O)cc3o2)ccc1O [CHRYSOERIOL]
- dose excreted at 24 h [1]: 1.92%
- Drug metabolism (Kidney [2]): metabolite_detected
- AUC(0-inf) [3]: 2280 ng·h/mL
- dose excreted at 24 h [4]: 0.451%
- Drug metabolism (Small intestine [5]): metabolite_not_detected
- Drug metabolism (Lung [6]): metabolite_not_detected
- Stability (Liver microsome): Unstable
- half-life [7]: 1.57 h
- MRT inf [8]: 1.76 h
- Drug metabolism (Liver [9]): metabolite_detected
- Drug metabolism (Lung [10]): metabolite_detected
- AUC(0-t) [11]: 2090 ng·h/mL
- Vd [12]: 6.34 L/kg
- Retention_time [13]: 29.35 min
- clearance (Rattus norvegicus): 49 mL/min/kg
- Drug metabolism (Small intestine [14]): metabolite_detected
- Cmax [15]: 2060 ng/mL
- MRT last [16]: 1.24 h
- Drug metabolism (Liver [17]): metabolite_not_detected
- Drug metabolism (Kidney [18]): metabolite_not_detected
- Drug metabolism [19]: metabolite_detected
- Drug metabolism [20]: metabolite_not_detected
